Assay results taken from patent publication US4048431A, “Alkylated derivatives of antibiotic BM123γ” (American Cyanamid Company, priority 1975, dated 1977).

System: Escherichia coli US311
Test: in vivo protection of mice against lethal Escherichia coli US311 infection (single subcutaneous dose)
Design: species or system Escherichia coli US311 in Carworth Farms CF-1 mice
Conditions: Carworth Farms CF-1 mice, about 20 gm., infected intraperitoneally with lethal dose of E. coli US311 (10^-3 TSP dilution of 5 hour TSP blood culture)
Method: These new substances show high in vivo antibacterial activity in mice against Escherichia coli US311 when administered by a single subcutaneous dose to groups of Carworth Farms CF-1 mice, weight about 20 gm., infected intraperitoneally with a lethal dose of this bacteria in a 10^- 3 trypticase soy broth TSP dilution of a 5 hour TSP blood culture. In Table VI below is set forth the in vivo activity of typical products of this invention (prepared from the indicated carbonyl reagents) against Escherichia coli US311 in mice. The activity is expressed in terms of the ED50 or the dose in mg./kg. of body weight required to protect 50% of the mice against E. coli.

1-ethylpentyl-BM123γ
ED50 (dose required to protect 50% of the mice against E. coli): 0.25 mg./kg. of body weight

1-cyclopropylethyl-BM123γ
ED50 (dose required to protect 50% of the mice against E. coli): 0.25 mg./kg. of body weight

1-methyldecyl-BM123γ
ED50 (dose required to protect 50% of the mice against E. coli): > 2 mg./kg. of body weight

methyl-BM123γ
ED50 (dose required to protect 50% of the mice against E. coli): 0.12 mg./kg. of body weight

1,3-dimethylpentyl-BM123γ
ED50 (dose required to protect 50% of the mice against E. coli): < 0.12 mg./kg. of body weight

4-tetrahydrothiopyranyl-BM123γ
ED50 (dose required to protect 50% of the mice against E. coli): 0.38 mg./kg. of body weight

1-ethyloctyl-BM123γ
ED50 (dose required to protect 50% of the mice against E. coli): 0.25 mg./kg. of body weight

bicyclo[3.2.1]octanyl-2-BM123γ
ED50 (dose required to protect 50% of the mice against E. coli): < 0.25 mg./kg. of body weight

2-(tert-butylcarbamoyl)-1-methyl-ethyl-BM123γ
ED50 (dose required to protect 50% of the mice against E. coli): 0.38 mg./kg. of body weight

1-methylbutyl-BM123γ
ED50 (dose required to protect 50% of the mice against E. coli): < 0.12 mg./kg. of body weight

cycloheptyl-BM123γ
ED50 (dose required to protect 50% of the mice against E. coli): 0.3 mg./kg. of body weight

2,4-dimethylcyclopentyl-BM123γ
ED50 (dose required to protect 50% of the mice against E. coli): 0.18 mg./kg. of body weight

2-ethylidenecyclohexyl-BM123γ
ED50 (dose required to protect 50% of the mice against E. coli): 0.12 mg./kg. of body weight

1-methyl-2-cyclohexylethyl-BM123γ
ED50 (dose required to protect 50% of the mice against E. coli): 0.18 mg./kg. of body weight

1-methylhexyl-BM123γ
ED50 (dose required to protect 50% of the mice against E. coli): 0.38 mg./kg. of body weight

1-benzyl-4-piperidyl-BM123γ
ED50 (dose required to protect 50% of the mice against E. coli): 0.18 mg./kg. of body weight

1-[(dimethoxyphosphinyl)methyl]-hexyl-BM123γ
ED50 (dose required to protect 50% of the mice against E. coli): 0.3 mg./kg. of body weight

1-methyl-2-o-[tolylcarbamoylethyl]-BM123γ
ED50 (dose required to protect 50% of the mice against E. coli): 0.25 mg./kg. of body weight

1-methyl-hexen-4-yl-BM123γ
ED50 (dose required to protect 50% of the mice against E. coli): 0.18 mg./kg. of body weight

1-isopropyl-4-methylpentyl-BM123γ
ED50 (dose required to protect 50% of the mice against E. coli): 0.39 mg./kg. of body weight

1,2-dimethylbutyl-BM123γ
ED50 (dose required to protect 50% of the mice against E. coli): 0.12 mg./kg. of body weight

1-methyl-2-(N,N-dipropylamino)-ethyl-BM123γ
ED50 (dose required to protect 50% of the mice against E. coli): 0.3 mg./kg. of body weight

1,4-dimethylpentyl-BM123γ
ED50 (dose required to protect 50% of the mice against E. coli): 0.12 mg./kg. of body weight

1-methyl-2-ethylbutyl-BM123γ
ED50 (dose required to protect 50% of the mice against E. coli): 0.18 mg./kg. of body weight

1-propylbutyl-BM123γ
ED50 (dose required to protect 50% of the mice against E. coli): 0.25 mg./kg. of body weight

2,2-dimethylbutyl-BM123γ
ED50 (dose required to protect 50% of the mice against E. coli): 0.12 mg./kg. of body weight

decahydro-1-methyl-2-naphthyl-BM123γ
ED50 (dose required to protect 50% of the mice against E. coli): 0.25 mg./kg. of body weight

1,2,3-trimethylpentyl-BM123γ
ED50 (dose required to protect 50% of the mice against E. coli): 0.39 mg./kg. of body weight

ethyl-BM123γ
ED50 (dose required to protect 50% of the mice against E. coli): 0.38 mg./kg. of body weight

1-methyl-2-acetylethyl-BM123γ
ED50 (dose required to protect 50% of the mice against E. coli): 1.5 mg./kg. of body weight

1-methyl-2-cyclopenten(-2-)-yl-ethyl-BM123γ
ED50 (dose required to protect 50% of the mice against E. coli): < 0.12 mg./kg. of body weight

3,3-dimethylcyclohexen(-4-)yl-BM123γ
ED50 (dose required to protect 50% of the mice against E. coli): 0.37 mg./kg. of body weight

1-carbomethoxy-2-carbomethoxyethyl-BM123γ
ED50 (dose required to protect 50% of the mice against E. coli): 0.75 mg./kg. of body weight

1-methyl-4-hydroxybutyl-BM123γ
ED50 (dose required to protect 50% of the mice against E. coli): 0.18 mg./kg. of body weight

1-methyl-3-methoxypropen(-2-)yl-BM123γ
ED50 (dose required to protect 50% of the mice against E. coli): > 2.0 mg./kg. of body weight

2-phenylcyclohexyl-BM123γ
ED50 (dose required to protect 50% of the mice against E. coli): 0.38 mg./kg. of body weight

1-methyl-2-methoxyethyl-BM123γ
ED50 (dose required to protect 50% of the mice against E. coli): 0.3 mg./kg. of body weight

2-phenylethyl-BM123γ
ED50 (dose required to protect 50% of the mice against E. coli): 0.18 mg./kg. of body weight

1-methyl-4-piperidyl-BM123γ
ED50 (dose required to protect 50% of the mice against E. coli): 0.75 mg./kg. of body weight

1-methyl-3-phenylpropen(-2-)yl-BM123γ
ED50 (dose required to protect 50% of the mice against E. coli): 0.25 mg./kg. of body weight

1-cyclohexylpropyl-BM123γ
ED50 (dose required to protect 50% of the mice against E. coli): 0.37 mg./kg. of body weight

1,3-dimethylhexyl-BM123γ
ED50 (dose required to protect 50% of the mice against E. coli): 0.5 mg./kg. of body weight

1-methyl-2-carboethoxypropyl-BM123γ
ED50 (dose required to protect 50% of the mice against E. coli): 0.18 mg./kg. of body weight

2,2,4,4-tetramethylcyclopentyl-BM123γ
ED50 (dose required to protect 50% of the mice against E. coli): 0.75 mg./kg. of body weight

2-ethylcyclohexyl-BM123γ
ED50 (dose required to protect 50% of the mice against E. coli): 0.19 mg./kg. of body weight

1,2-dimethyl-3-hydroxypropyl-BM123γ
ED50 (dose required to protect 50% of the mice against E. coli): 0.12 mg./kg. of body weight

trans-2-methyl-2-butenyl-BM123γ
ED50 (dose required to protect 50% of the mice against E. coli): 0.18 mg./kg. of body weight

1-methyl-3,3-dimethoxypropyl-BM123γ
ED50 (dose required to protect 50% of the mice against E. coli): 0.75 mg./kg. of body weight

2-cyclohexylcyclohexyl-BM123γ
ED50 (dose required to protect 50% of the mice against E. coli): 0.75 mg./kg. of body weight

1,2-dimethylpropyl-BM123γ
ED50 (dose required to protect 50% of the mice against E. coli): 0.19 mg./kg. of body weight

1-ethylhexyl-BM123γ
ED50 (dose required to protect 50% of the mice against E. coli): 0.18 mg./kg. of body weight

1-methylpentyl-BM123γ
ED50 (dose required to protect 50% of the mice against E. coli): 0.38 mg./kg. of body weight

1-methyl-2-(2-methoxyphenyl)ethyl-BM123γ
ED50 (dose required to protect 50% of the mice against E. coli): 0.7 mg./kg. of body weight

4-t-butylcyclohexyl-BM123γ
ED50 (dose required to protect 50% of the mice against E. coli): 0.12 mg./kg. of body weight

1-methylpropyl-BM123γ
ED50 (dose required to protect 50% of the mice against E. coli): < 0.12 mg./kg. of body weight

2-methylcyclopentyl-BM123γ
ED50 (dose required to protect 50% of the mice against E. coli): 0.25 mg./kg. of body weight

1-[5-norbornene(2)]ethyl-BM123γ
ED50 (dose required to protect 50% of the mice against E. coli): < 0.12 mg./kg. of body weight

1-methyl-4-chlorobutyl-BM123γ
ED50 (dose required to protect 50% of the mice against E. coli): 0.37 mg./kg. of body weight

norbornyl-BM123γ
ED50 (dose required to protect 50% of the mice against E. coli): 0.18 mg./kg. of body weight

1,5-dimethylhexen(-4-)yl-BM123γ
ED50 (dose required to protect 50% of the mice against E. coli): 0.06 mg./kg. of body weight

3-methyl-6-isopropylcyclohexyl-BM123γ
ED50 (dose required to protect 50% of the mice against E. coli): 0.38 mg./kg. of body weight

1-methyl-2,2-dimethoxyethyl-BM123γ
ED50 (dose required to protect 50% of the mice against E. coli): 0.5 mg./kg. of body weight

adamantyl-2-BM123γ
ED50 (dose required to protect 50% of the mice against E. coli): 0.25 mg./kg. of body weight

2-ethyl-2-(3,4-dimethoxyphenyl)ethyl-BM123γ
ED50 (dose required to protect 50% of the mice against E. coli): 1.0 mg./kg. of body weight

1-methyl-2-(3-hydroxy-2-methylpropyl)-BM123γ
ED50 (dose required to protect 50% of the mice against E. coli): 0.18 mg./kg. of body weight

1-ethylbutyl-BM123γ
ED50 (dose required to protect 50% of the mice against E. coli): 0.39 mg./kg. of body weight

2-ethyl-2-butenyl-BM123γ
ED50 (dose required to protect 50% of the mice against E. coli): 0.18 mg./kg. of body weight

1-methyl-3-phenylpropyl-BM123γ
ED50 (dose required to protect 50% of the mice against E. coli): 0.38 mg./kg. of body weight

3-quinuclidinyl-BM123γ
ED50 (dose required to protect 50% of the mice against E. coli): 0.39 mg./kg. of body weight

3-tert-pentylcyclopentyl-BM123γ
ED50 (dose required to protect 50% of the mice against E. coli): 0.5 mg./kg. of body weight
